Reference: ChEMBL document CHEMBL1148480, “Structure-activity studies of orexin a and orexin B at the human orexin 1 and orexin 2 receptors led to orexin 2 receptor selective and orexin 1 receptor preferring ligands” (J Med Chem, 2004)
Residues, ends and D or L forms follow the SMILES beside them.

Key:
Orexin receptor type 2 = biological target: T1, Orexin receptor type 2 (Homo sapiens, UniProt O43614); experiment: Effective agonist concentration to the human Orexin receptor type 2 was determined using the Xlfit program; assay type: functional
T1 sequence (O43614 whole entry): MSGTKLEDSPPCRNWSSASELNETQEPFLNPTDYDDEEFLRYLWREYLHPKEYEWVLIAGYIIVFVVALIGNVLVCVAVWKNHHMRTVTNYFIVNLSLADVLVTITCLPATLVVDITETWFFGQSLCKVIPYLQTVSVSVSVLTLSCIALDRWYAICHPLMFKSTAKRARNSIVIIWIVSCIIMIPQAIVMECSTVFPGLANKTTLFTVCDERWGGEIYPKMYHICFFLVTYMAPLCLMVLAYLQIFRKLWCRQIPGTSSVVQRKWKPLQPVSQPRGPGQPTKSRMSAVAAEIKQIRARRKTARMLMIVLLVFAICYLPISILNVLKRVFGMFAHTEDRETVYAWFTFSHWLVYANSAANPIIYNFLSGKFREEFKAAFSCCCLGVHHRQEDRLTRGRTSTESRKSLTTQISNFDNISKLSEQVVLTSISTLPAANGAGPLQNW

[1] = biological target: T2, Orexin/Hypocretin receptor type 1 (Homo sapiens, UniProt O43613); experiment: Effective agonist concentration to human orexin receptor type 1 determined using the Xlfit program; assay type: functional
T2 sequence (O43613 whole entry): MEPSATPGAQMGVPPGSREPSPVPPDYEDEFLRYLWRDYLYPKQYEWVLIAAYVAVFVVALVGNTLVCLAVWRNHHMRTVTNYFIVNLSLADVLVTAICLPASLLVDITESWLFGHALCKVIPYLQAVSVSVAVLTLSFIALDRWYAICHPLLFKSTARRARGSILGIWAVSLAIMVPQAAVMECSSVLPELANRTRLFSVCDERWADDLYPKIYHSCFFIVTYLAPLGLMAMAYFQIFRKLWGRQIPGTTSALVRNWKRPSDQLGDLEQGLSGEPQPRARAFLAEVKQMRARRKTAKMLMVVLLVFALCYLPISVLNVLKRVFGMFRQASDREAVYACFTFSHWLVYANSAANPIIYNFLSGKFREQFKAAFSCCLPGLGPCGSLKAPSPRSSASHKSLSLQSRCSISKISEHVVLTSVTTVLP

SMILES	EC50 (Orexin receptor type 2)	EC50 [1]
CC(C)C[C@H](NC(=O)CNC(=O)[C@@H]1CCCN1C(=O)[C@@H]1CCCN1C(=O)CNC(=O)[C@H](CO)NC(=O)[C@@H](N)CCCNC(=N)N)C(=O)N[C@@H](CCC(N)=O)C(=O)NCC(=O)N[C@@H](CCCNC(=N)N)C(=O)N[C@@H](CC(C)C)C(=O)N[C@@H](CCC(N)=O)C(=O)N[C@@H](CCCNC(=N)N)C(=O)N[C@@H](CC(C)C)C(=O)N[C@@H](CC(C)C)C(=O)N[C@@H](CCC(N)=O)C(=O)N[C@@H](C)C(=O)N[C@@H](CO)C(=O)NCC(=O)N[C@@H](CC(N)=O)C(=O)N[C@@H](Cc1cnc[nH]1)C(=O)O (H-RSGPPGLQGRLQRLLQASGNH-OH)	> 1000 µM	> 1000 µM
CC[C@H](C)[C@H](NC(=O)CNC(=O)[C@H](C)NC(=O)[C@H](C)NC(=O)[C@H](Cc1cnc[nH]1)NC(=O)[C@H](CC(N)=O)NC(=O)CNC(=O)[C@H](C)NC(=O)CNC(=O)[C@H](Cc1cnc[nH]1)NC(=O)[C@H](CC(C)C)NC(=O)[C@H](CC(C)C)NC(=O)[C@H](CCC(=O)O)NC(=O)[C@H](Cc1ccc(O)cc1)NC(=O)[C@H](CC(C)C)NC(=O)[C@@H](N)CCCNC(=N)N)C(=O)N[C@@H](CC(C)C)C(=O)N[C@H](C(=O)N[C@@H](CC(C)C)C(=O)O)[C@@H](C)O (H-RLYELLHGAGNHAAGILTL-OH)	0.42 µM	1.79 µM
CC[C@H](C)[C@H](NC(=O)CNC(=O)[C@H](C)NC(=O)[C@H](C)NC(=O)[C@H](Cc1cnc[nH]1)NC(=O)[C@H](CC(N)=O)NC(=O)CNC(=O)[C@H](C)NC(=O)CNC(=O)[C@H](Cc1cnc[nH]1)NC(=O)[C@H](CC(C)C)NC(=O)[C@H](CC(C)C)NC(=O)[C@H](CCC(=O)O)NC(=O)[C@H](Cc1ccc(O)cc1)NC(=O)[C@H](CC(C)C)NC(=O)[C@H](CCCNC(=N)N)NC(=O)[C@H](CS)NC(=O)[C@@H](N)CO)C(=O)N[C@@H](CC(C)C)C(=O)N[C@H](C(=O)N[C@@H](CC(C)C)C(=O)O)[C@@H](C)O (H-SCRLYELLHGAGNHAAGILTL-OH)	0.45 µM	1.03 µM
CC(C)C[C@H](NC(=O)CNC(=O)[C@@H]1CCCN1C(=O)[C@@H]1CCCN1C(=O)CNC(=O)[C@H](CO)NC(=O)[C@@H](N)CCCN=C(N)N)C(=O)N[C@@H](CCC(N)=O)C(=O)NCC(=O)N[C@@H](CCCN=C(N)N)C(=O)O (H-RSGPPGLQGR-OH)	> 1000 µM	> 1000 µM
CC[C@H](C)[C@H](NC(=O)CNC(=O)[C@H](C)NC(=O)[C@H](C)NC(=O)[C@H](Cc1cnc[nH]1)NC(=O)[C@H](CC(N)=O)NC(=O)CNC(=O)[C@H](CO)NC(=O)[C@H](C)NC(=O)[C@H](CCC(N)=O)NC(=O)[C@H](CC(C)C)NC(=O)[C@H](CC(C)C)NC(=O)[C@H](CCCNC(=N)N)NC(=O)[C@H](CCC(N)=O)NC(=O)[C@H](CC(C)C)NC(=O)[C@@H](N)CCCNC(=N)N)C(=O)N[C@@H](CC(C)C)C(=O)N[C@H](C(=O)N[C@@H](CCSC)C(=O)O)[C@@H](C)O (H-RLQRLLQASGNHAAGILTM-OH)	0.57 µM	> 1000 µM

Next, values leading:

EC50 (Orexin receptor type 2)	EC50 [1]	SMILES
0.57 µM	3.16 µM	CC[C@H](C)[C@H](NC(=O)CNC(=O)[C@H](C)NC(=O)[C@H](C)NC(=O)[C@H](Cc1cnc[nH]1)NC(=O)[C@H](CC(N)=O)NC(=O)CNC(=O)[C@H](CO)NC(=O)[C@H](C)NC(=O)[C@H](CCC(N)=O)NC(=O)[C@H](CC(C)C)NC(=O)[C@H](CC(C)C)NC(=O)[C@H](CCCNC(=N)N)NC(=O)[C@H](CCC(N)=O)NC(=O)[C@H](CC(C)C)NC(=O)[C@H](CCCNC(=N)N)NC(=O)CNC(=O)[C@H](CCC(N)=O)NC(=O)[C@H](CC(C)C)NC(=O)[C@H](C)N)C(=O)N[C@@H](CC(C)C)C(=O)N[C@H](C(=O)N[C@@H](CCSC)C(=O)O)[C@@H](C)O (H-ALQGRLQRLLQASGNHAAGILTM-OH)
> 1000 µM	> 1000 µM	CC[C@H](C)[C@H](NC(=O)CNC(=O)[C@H](C)NC(=O)[C@H](C)NC(=O)[C@H](Cc1c[nH]cn1)NC(=O)[C@H](CC(N)=O)NC(=O)CNC(=O)[C@H](C)N)C(=O)N[C@@H](CC(C)C)C(=O)N[C@H](C(=O)N[C@@H](CC(C)C)C(=O)O)[C@@H](C)O (H-AGNHAAGILTL-OH)
0.24 µM	0.69 µM	CC[C@H](C)[C@H](NC(=O)CNC(=O)[C@H](C)NC(=O)[C@H](C)NC(=O)[C@H](Cc1cnc[nH]1)NC(=O)[C@H](CC(N)=O)NC(=O)CNC(=O)[C@H](C)NC(=O)CNC(=O)[C@H](Cc1cnc[nH]1)NC(=O)[C@H](CC(C)C)NC(=O)[C@H](CC(C)C)NC(=O)[C@H](CCC(=O)O)NC(=O)[C@H](Cc1ccc(O)cc1)NC(=O)[C@H](CC(C)C)NC(=O)[C@H](CCCNC(=N)N)NC(=O)[C@H](CSSC[C@H](NC(=O)[C@@H](N)CO)C(=O)N[C@@H](CCCNC(=N)N)C(=O)N[C@@H](CC(C)C)C(=O)N[C@@H](Cc1ccc(O)cc1)C(=O)N[C@@H](CCC(=O)O)C(=O)N[C@@H](CC(C)C)C(=O)N[C@@H](CC(C)C)C(=O)N[C@@H](Cc1cnc[nH]1)C(=O)NCC(=O)N[C@@H](C)C(=O)NCC(=O)N[C@@H](CC(N)=O)C(=O)N[C@@H](Cc1cnc[nH]1)C(=O)N[C@@H](C)C(=O)N[C@@H](C)C(=O)NCC(=O)N[C@H](C(=O)N[C@@H](CC(C)C)C(=O)N[C@H](C(=O)N[C@@H](CC(C)C)C(=O)O)[C@@H](C)O)[C@@H](C)CC)NC(=O)[C@@H](N)CO)C(=O)N[C@@H](CC(C)C)C(=O)N[C@H](C(=O)N[C@@H](CC(C)C)C(=O)O)[C@@H](C)O
2.33 µM	> 1000 µM	CC[C@H](C)[C@H](NC(=O)CNC(=O)[C@H](C)NC(=O)[C@H](C)NC(=O)[C@H](Cc1cnc[nH]1)NC(=O)[C@H](CC(N)=O)NC(=O)CNC(=O)[C@H](CO)NC(=O)[C@H](C)NC(=O)[C@H](CCC(N)=O)NC(=O)[C@H](C)NC(=O)[C@H](CC(C)C)NC(=O)[C@H](CCCNC(=N)N)NC(=O)[C@H](CCC(N)=O)NC(=O)[C@H](CC(C)C)NC(=O)[C@H](CCCNC(=N)N)NC(=O)CNC(=O)[C@H](CCC(N)=O)NC(=O)[C@H](CC(C)C)NC(=O)CN)C(=O)N[C@@H](CC(C)C)C(=O)N[C@H](C(=O)N[C@@H](CCSC)C(=O)O)[C@@H](C)O (H-GLQGRLQRLAQASGNHAAGILTM-OH)
> 1000 µM	> 1000 µM	CSCC[C@H](NC(=O)[C@@H](NC(=O)[C@H](CC(C)C)NC(=O)[C@@H]1CCCN1C(=O)CNC(=O)[C@H](C)NC(=O)[C@H](C)NC(=O)[C@H](Cc1cnc[nH]1)NC(=O)[C@H](CC(N)=O)NC(=O)CNC(=O)[C@H](CO)NC(=O)[C@H](C)NC(=O)[C@H](CCC(N)=O)NC(=O)[C@H](CC(C)C)NC(=O)[C@H](CC(C)C)NC(=O)[C@H](CCCNC(=N)N)NC(=O)[C@H](CCC(N)=O)NC(=O)[C@H](CC(C)C)NC(=O)[C@H](CCCNC(=N)N)NC(=O)CNC(=O)[C@H](CCC(N)=O)NC(=O)[C@H](CC(C)C)NC(=O)CN)[C@@H](C)O)C(=O)O (H-GLQGRLQRLLQASGNHAAGPLTM-OH)
> 1000 µM	> 1000 µM	CC(C)C[C@H](NC(=O)CNC(=O)[C@@H]1CCCN1C(=O)[C@@H]1CCCN1C(=O)CNC(=O)[C@H](CO)NC(=O)[C@@H](N)CCCN=C(N)N)C(=O)N[C@@H](CCC(N)=O)C(=O)NCC(=O)N[C@@H](CCCN=C(N)N)C(=O)N[C@@H](CC(C)C)C(=O)N[C@@H](CCC(N)=O)C(=O)N[C@@H](CCCN=C(N)N)C(=O)O (H-RSGPPGLQGRLQR-OH)
